The values below come from patent publication US11912710B2 (UPPTHERA, INC., priority 2021, dated 2024).

What all share (format): cell-based
The target in one assay is T1, PLK1 (Homo sapiens, UniProt P53350).
T1 construct: endogenous in cells; host or cells: HeLa LgBit (Plk1-HiBit KI): HeLa cells stably expressing LgBit, with HiBit knocked into the endogenous Plk1 locus by CRISPR/Cas9
In words: Luciferase assay for PLK1 in HeLa LgBit (Plk1-HiBit KI) cell line. The conditions noted are these: 300 nM compound, luminescence after 9 hours, read-out: Activity: ratio of the luminescense value of compound treatment group to DMSO treatment group. As for the experimental part:
2. Luciferase Assay for PLK1
(1) Preparation and Culture of HeLa LgBit (Plk1-HiBit KI) Cell Line
A HeLa cell line in which the LgBit vector was transfected and expressed stably was prepared. Then, after constructing gRNA and donor to express the HiBit amino acid sequence behind the C-terminal of the Plk1 gene, which was inherent in the cell, it was inserted into the cell together with a vector capable of expressing CRISPR/Cas9. Only the cells in which the insertion was completed and knock-in had progressed were selected, sub-cultured and used.
(2) Treatment of Compounds of the Present Invention and Method of Luciferase Assay
In the case of HeLa LgBit (Plk1-HiBit KI), the compounds were treated after being released after thymidine block, and the process was as follows. Thymidine (Sigma-Aldrich Cat. No. T9250-5G) was completely dissolved in DW and used in the experiment. For thymidine block, the products were treated with 2 mM of thymidine and then incubated for 24 hours. For release and chemical treatment, the medium was suctioned and washed with 1×PBS. TrypLE™ was added and incubated in 37° C. CO2 incubator for 5 min. Cells neutralized by adding complete media were counted through a counter. For each well of a 96-well culture plate (SPL), 3.3×10^4 cells and a total medium volume of 150 μL were seeded and incubated in a CO2 incubator.
Each cell line was incubated in a CO2 incubator for 18 hours, and Endurazine was added to each well to make up 4% of the total volume. After adding the compound of the present invention in a 96-well white plate (SPL) to a concentration of 300 nM, the wavelength of the plate reader (BMG Labtech, CLARIOstar Plus) was set to […], and then the luminescence was tracked in real time.
In Table 2, Activity represents the ratio of the luminescense value of each Exemplary Compound treatment group to DMSO treatment group (+++: <0.3, ++<0.6, +<0.7).
Background: With HiBiT, luminescence reflects the tagged protein that the partner subunit can reach.

Another assay deals with NCI-H526 cell line. Put plainly: Cell viability assay for H526 cell line. The conditions noted are these: Homo sapiens, NCI-H526, 120 h; H526 cells, 5 days, EZ-Cytox, 3000 nM to 0.46 nM. As for the experimental part: 3. Cell Viability Assay for H526 Cell Line
(1) Culture of NCI-H526 Cell Line
(2) Treatment of Compounds of the Present Invention and Method of Cell Viability Assay
After treating the compound to each well to make the total volume of 200 μL, it was cultured in a CO2 incubator (Thermo Fisher Science, Cat. No. 4111) for 5 days.
The absorbance of the completely cultured sample was measured by setting the wavelength of a plate reader (BMG Labtech, CLARIOstar Plus) to […], and was measured after shaking for 3 minutes in a plate reader before measurement.
In Table 3, Activity represents IC50 value of each Exemplary Compound treatment group to H526 cell line (A: <30 nM, B: <50 nM, C: <100 nM, D: <200 nM, E: <400 nM).

A further assay has as its system MRC-5 cell line. In words: Cell viability assay (cytotoxicity) for MRC-5 cell line. Conditions: Homo sapiens, MRC5, 120 h; MRC-5 normal cell line, 5 days, EZ-Cytox, 10000 nM to 1.52 nM; read-out: Activity: IC50 value to MRC-5 cell line (Exemplary Compounds). As for the experimental part:
4. Cell Viability Assay for MRC-5 Cell Line
(1) Culture of MRC-5 Cell Line
Passage of cultured cells was maintained within P15.
(2) Treatment of Compounds of the Present Invention
Then, it was cultured in 37° C.
(3) Cytotoxicity Experiment
CO2 incubator for 4 hours.
Cell Viability Assay for MRC-5 cell line

T1 sequence (P53350 whole entry): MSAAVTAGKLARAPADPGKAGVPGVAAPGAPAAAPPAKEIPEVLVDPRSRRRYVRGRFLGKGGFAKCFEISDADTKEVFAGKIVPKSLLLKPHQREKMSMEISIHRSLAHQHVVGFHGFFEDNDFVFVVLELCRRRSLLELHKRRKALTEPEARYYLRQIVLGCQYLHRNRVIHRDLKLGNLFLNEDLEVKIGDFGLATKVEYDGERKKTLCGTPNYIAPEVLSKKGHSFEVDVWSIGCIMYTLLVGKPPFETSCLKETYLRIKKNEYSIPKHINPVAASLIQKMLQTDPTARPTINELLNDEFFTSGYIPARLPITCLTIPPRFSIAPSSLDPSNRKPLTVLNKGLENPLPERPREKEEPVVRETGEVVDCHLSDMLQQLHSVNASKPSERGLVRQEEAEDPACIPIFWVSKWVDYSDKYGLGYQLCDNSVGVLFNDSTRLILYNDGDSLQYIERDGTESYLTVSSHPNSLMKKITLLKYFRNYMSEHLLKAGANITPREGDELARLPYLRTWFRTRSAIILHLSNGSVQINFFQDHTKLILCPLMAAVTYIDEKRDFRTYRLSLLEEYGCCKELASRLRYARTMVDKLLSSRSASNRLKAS

In the case of `COc1cc(C(=O)NC2CCN(C(=O)CCCOc3ccc(C4CCC(=O)NC4=O)cc3)CC2)c(F)cc1Nc1ncc2c(n1)N(C1CCCC1)CC(F)(F)C(=O)N2C` (stereo not drawn) [Compound 3, 4-((9-cyclopentyl-7,7-difluoro-5-methyl-6-oxo-6,7,8,9-tetrahydro-5H-pyrimido[4,5-b][1,4]diazepin-2-yl)amino)-N-(1-(4-(4-(2,6-dioxopiperidin-3-yl)phenoxy)butanoyl)piperidin-4-yl)-2-fluoro-5-methoxybenzamide], the remaining activity at 0.3 µM at PLK1 is less than 60%. The 50% inhibitory concentration (IC50) is less than 0.1 µM in the assay on NCI-H526 cell line and greater than 10 µM with MRC-5 cell line.

With `COc1cc(C(=O)NC2CCN(C(=O)CCCOc3cccc(C4CCC(=O)NC4=O)c3)CC2)ccc1Nc1ncc2c(n1)N(C1CCCC1)CC(F)(F)C(=O)N2C` (stereo not drawn) [Compound 4, 4-((9-cyclopentyl-7,7-difluoro-5-methyl-6-oxo-6,7,8,9-tetrahydro-5H-pyrimido[4,5-b][1,4]diazepin-2-yl)amino)-N-(1-(4-(3-(2,6-dioxopiperidin-3-yl)phenoxy)butanoyl)piperidin-4-yl)-3-methoxybenzamide], the remaining activity at 0.3 µM on PLK1 was less than 30%. Further, the IC50 in the assay with NCI-H526 cell line is less than 0.05 µM; in the assay with MRC-5 cell line, greater than 10 µM.

In the case of `COc1cc(C(=O)NC2CCN(C(=O)CCN3CCN(c4ccc(C5CCC(=O)NC5=O)cc4)CC3)CC2)ccc1Nc1ncc2c(n1)N(C1CCCC1)CC(F)(F)C(=O)N2C` (stereo not drawn) [Compound 5, 4-((9-cyclopentyl-7,7-difluoro-5-methyl-6-oxo-6,7,8,9-tetrahydro-5H-pyrimido[4,5-b][1,4]diazepin-2-yl)amino)-N-(1-(3-(4-(4-(2,6-dioxopiperidin-3-yl)phenyl)piperazin-1-yl)propanoyl)piperidin-4-yl)-3-methoxybenzamide], on PLK1, the remaining activity at 0.3 µM was less than 60%. For the same molecule, the IC50 was less than 0.03 µM in the assay with NCI-H526 cell line and greater than 10 µM in the assay on MRC-5 cell line.

For the molecule `COc1cc(C(=O)NC2CCN(C(=O)CCN3CCN(c4cccc(C5CCC(=O)NC5=O)c4)CC3)CC2)ccc1Nc1ncc2c(n1)N(C1CCCC1)CC(F)(F)C(=O)N2C` (stereo not drawn) [Compound 6, 4-((9-cyclopentyl-7,7-difluoro-5-methyl-6-oxo-6,7,8,9-tetrahydro-5H-pyrimido[4,5-b][1,4]diazepin-2-yl)amino)-N-(1-(3-(4-(3-(2,6-dioxopiperidin-3-yl)phenyl)piperazin-1-yl)propanoyl)piperidin-4-yl)-3-methoxybenzamide], the remaining activity at 0.3 µM on PLK1 is less than 60%. The IC50 is less than 0.03 µM with NCI-H526 cell line and greater than 10 µM in the assay on MRC-5 cell line.

`COc1cc(C(=O)NC2CCC(N(C)CC3CCN(c4ccc(C5CCC(=O)NC5=O)cc4F)CC3)CC2)ccc1Nc1ncc2c(n1)N(C1CCCC1)CC(F)(F)C(=O)N2C` (stereo not drawn) [Compound 7, 4-((9-cyclopentyl-7,7-difluoro-5-methyl-6-oxo-6,7,8,9-tetrahydro-5H-pyrimido[4,5-b][1,4]diazepin-2-yl)amino)-N-((1r,4r)-4-(((1-(4-(2,6-dioxopiperidin-3-yl)-2-fluorophenyl)piperidin-4-yl)methyl)(methyl)amino)cyclohexyl)-3-methoxybenzamide]: the remaining activity at 0.3 µM at PLK1 was less than 30%. Moreover, the figures for the half-maximal inhibitory concentration (IC50) with NCI-H526 cell line and with MRC-5 cell line were less than 0.03 µM and greater than 10 µM, respectively.

On to `COc1cc(C(=O)NC2CCC(CN(C)C3CCN(c4ccc(C5CCC(=O)NC5=O)cc4F)CC3)CC2)ccc1Nc1ncc2c(n1)N(C1CCCC1)CC(F)(F)C(=O)N2C` (stereo not drawn) [Compound 8, 4-((9-cyclopentyl-7,7-difluoro-5-methyl-6-oxo-6,7,8,9-tetrahydro-5H-pyrimido[4,5-b][1,4]diazepin-2-yl)amino)-N-((1r,4r)-4-(((1-(4-(2,6-dioxopiperidin-3-yl)-2-fluorophenyl)piperidin-4-yl)(methyl)amino)methyl)cyclohexyl)-3-methoxybenzamide], for which the remaining activity at 0.3 µM at PLK1 was less than 30%. Further, the half-maximal inhibitory concentration (IC50) was less than 0.03 µM in the assay with NCI-H526 cell line and greater than 10 µM in the assay on MRC-5 cell line.

On to `COc1cc(C(=O)NC2CCN(C(=O)CC3CCN(c4ccc(C5CCC(=O)NC5=O)cc4F)CC3)CC2)ccc1Nc1ncc2c(n1)N(C1CCCC1)CC(F)(F)C(=O)N2C` (stereo not drawn) [Compound 10, 4-((9-cyclopentyl-7,7-difluoro-5-methyl-6-oxo-6,7,8,9-tetrahydro-5H-pyrimido[4,5-b][1,4]diazepin-2-yl)amino)-N-(1-(2-(1-(4-(2,6-dioxopiperidin-3-yl)-2-fluorophenyl)piperidin-4-yl)acetyl)piperidin-4-yl)-3-methoxybenzamide], for which the remaining activity at 0.3 µM at PLK1 is less than 30%. Besides, the figures for the IC50 in the assay with NCI-H526 cell line and in the assay on MRC-5 cell line were less than 0.05 µM and greater than 10 µM, respectively.

For the molecule `COc1cc(C(=O)NC2CCN(C(=O)CCN3CCN(c4ccc(C5CCC(=O)NC5=O)cc4F)CC3)CC2)ccc1Nc1ncc2c(n1)N(C1CCCC1)CC(F)(F)C(=O)N2C` (stereo not drawn) [Compound 11, 4-((9-cyclopentyl-7,7-difluoro-5-methyl-6-oxo-6,7,8,9-tetrahydro-5H-pyrimido[4,5-b][1,4]diazepin-2-yl)amino)-N-(1-(3-(4-(4-(2,6-dioxopiperidin-3-yl)-2-fluorophenyl)piperazin-1-yl)propanoyl)piperidin-4-yl)-3-methoxybenzamide], on PLK1, the remaining activity at 0.3 µM was less than 30%. Further, the results for the IC50 in the assay on NCI-H526 cell line and with MRC-5 cell line were less than 0.03 µM and greater than 10 µM, respectively.

On to `COc1cc(C(=O)NN2CCC(CCN3CCN(c4ccc(C5CCC(=O)NC5=O)cc4F)CC3)CC2)ccc1Nc1ncc2c(n1)N(C1CCCC1)CC(F)(F)C(=O)N2C` (stereo not drawn) [Compound 12, 4-((9-cyclopentyl-7,7-difluoro-5-methyl-6-oxo-6,7,8,9-tetrahydro-5H-pyrimido[4,5-b][1,4]diazepin-2-yl)amino)-N-(4-(2-(4-(4-(2,6-dioxopiperidin-3-yl)-2-fluorophenyl)piperazin-1-yl)ethyl)piperidin-1-yl)-3-methoxybenzamide], for which the remaining activity at 0.3 µM on PLK1 is less than 30%. The figures for the IC50 in the assay on NCI-H526 cell line and with MRC-5 cell line were less than 0.03 µM and 20 µM, respectively.

Take `COc1cc(C(=O)NC2CCCN(C(=O)CN3CCN(c4ccc(C5CCC(=O)NC5=O)cc4F)CC3)C2)ccc1Nc1ncc2c(n1)N(C1CCCC1)CC(F)(F)C(=O)N2C` (stereo not drawn) [Compound 13, 4-((9-cyclopentyl-7,7-difluoro-5-methyl-6-oxo-6,7,8,9-tetrahydro-5H-pyrimido[4,5-b][1,4]diazepin-2-yl)amino)-N-(1-(2-(4-(4-(2,6-dioxopiperidin-3-yl)-2-fluorophenyl)piperazin-1-yl)acetyl)piperidin-3-yl)-3-methoxybenzamide]: the remaining activity at 0.3 µM on PLK1 is less than 60%. Besides, the figures for the concentration for half-maximal inhibition (IC50) with NCI-H526 cell line and with MRC-5 cell line were less than 0.05 µM and greater than 10 µM, respectively.

On to `COc1cc(C(=O)NC2CCCN(C(=O)CCN3CCN(c4ccc(C5CCC(=O)NC5=O)cc4F)CC3)C2)ccc1Nc1ncc2c(n1)N(C1CCCC1)CC(F)(F)C(=O)N2C` (stereo not drawn) [Compound 14, 4-((9-cyclopentyl-7,7-difluoro-5-methyl-6-oxo-6,7,8,9-tetrahydro-5H-pyrimido[4,5-b][1,4]diazepin-2-yl)amino)-N-(1-(3-(4-(4-(2,6-dioxopiperidin-3-yl)-2-fluorophenyl)piperazin-1-yl)propanoyl)piperidin-3-yl)-3-methoxybenzamide], for which, at PLK1, the remaining activity at 0.3 µM was less than 60%. Further, the IC50 was less than 0.1 µM in the assay with NCI-H526 cell line and greater than 10 µM in the assay with MRC-5 cell line.

By IC50 is commonly meant the concentration at which inhibition is half-maximal.
